Structures can show the parent of a compound that is named as a salt.
Key:
PARP-1 enzyme [1] = target: T1, PARP-1 enzyme (Homo sapiens, UniProt P09874); assay: In vitro Scintillation Proximity Assay (SPA) for PARP-1 inhibitory activity; type: biochemical; details: nicked DNA activated PARP-1, [3H]-NAD+, biotinylated histones; read-out: In vitro SPA pIC50 (converted)
T1 construct: made in house
Protocol: Compounds of the present invention were tested in an in vitro assay based on SPA technology (proprietary to Amersham Pharmacia Biotech).
In principle, the assay relies upon the well established SPA technology for the detection of poly(ADP-ribosyl)ation of biotinylated target proteins, i.e histones. This ribosylation is induced using nicked DNA activated PARP-1 enzyme and [^3H]-nicotinamide adenine dinucleotide ([^3H]-NAD^+) as ADP-ribosyl donor.
As inducer of PARP-1 enzyme activity, nicked DNA was prepared. For this, 25 mg of DNA (supplier: Sigma) was dissolved in 25 ml DNAse buffer (10 mM Tris-HCl, pH 7.4; 0.5 mg/ml Bovine Serum Albumine (BSA); 5 mM MgCl2.6H2O and 1 mM KCl) to which 50 μl DNAse solution (1 mg/ml in 0.15 M NaCl) was added. After an incubation of 90 min. at 37° C., the reaction was terminated by adding 1.45 g NaCl, followed by a further incubation at 58° C. for 15 min. The reaction mixture was cooled on ice and dialysed at 4° C. for respectively 1.5 and 2 hours against 1.5 l of 0.2 M KCl, and twice against 1.5 l of 0.01 M KCl for 1.5 and 2 h respectively. The mixture was aliquoted and stored at −20° C. Histones (1 mg/ml, type II-A, supplier: Sigma) were biotinylated using the biotinylation kit of Amersham and stored aliquoted at −20° C. A stock solution of 100 mg/ml SPA poly(vinyl toluene) (PVT) beads (supplier: Amersham) was made in PBS. A stock solution of [^3H]-NAD^+ was made by adding 120 μl of [^3H]-NAD^+ (0.1 mCi/ml, supplier: NEN) to 6 ml incubation buffer (50 mM Tris/HCl, pH 8; 0.2 mM DTT; 4 mM MgCl2). A solution of 4 mM NAD^+ (supplier: Roche) was made in incubation buffer (from a 100 mM stock solution in water stored at −20° C.). The PARP-1 enzyme was produced using art known techniques, i.e. cloning and expression of the protein starting from human liver cDNA. Information concerning the used protein sequence of the PARP-1 enzyme including literature references can be found in the Swiss-Prot database under primary accession number P09874. Biotinylated histones and PVT-SPA beads were mixed and pre-incubated for 30 min. at room temperature. PARP-1 enzyme (concentration was lot dependent) was mixed with the nicked DNA and the mixture was pre-incubated for 30 min. at 4° C. Equal parts of this histones/PVT-SPA beads solution and PARP-1 enzyme/DNA solution were mixed and 75 μl of this mixture together with 1 μl of compound in DMSO and 25 μl of [^3H]-NAD^+ was added per well into a 96-well microtiterplate. The final concentrations in the incubation mixture were 2 μg/ml for the biotinylated histones, 2 mg/ml for the PVT-SPA beads, 2 μg/ml for the nicked DNA and between 5-10 μg/ml for the PARP-1 enzyme. After incubation of the mixture for 15 min. at room temperature, the reaction was terminated by adding 100 μl of 4 mM NAD^+ in incubation buffer (final concentration 2 mM) and plates were mixed. The beads were allowed to sediment for at least 15 min. and plates transferred to a TopCountNXT™ (Packard) for scintillation counting, values were expressed as counts per minute (cpm). For each experiment, controls (containing PARP-1 enzyme and DMSO without compound), a blank incubation (containing DMSO but no PARP-1 enzyme or compound) and samples (containing PARP-1 enzyme and compound dissolved in DMSO) were run in parallel. All compounds tested were dissolved and eventually further diluted in DMSO. […] In each test, the blank value was subtracted from both the control and the sample values. The control sample represented maximal PARP-1 enzyme activity. For each sample, the amount of cpm was expressed as a percentage of the mean cpm value of the controls. When appropriate, IC50-values (concentration of the drug, needed to reduce the PARP-1 enzyme activity to 50% of the control) were computed using linear interpolation between the experimental points just above and below the 50% level. Herein the effects of test compounds are expressed as pIC50 (the negative log value of the IC50-value). […]

PARP-1 enzyme [2] = target: T1, PARP-1 enzyme; assay: In vitro filtration assay for PARP-1 inhibitory activity; type: biochemical; details: nicked DNA activated PARP-1, [32P]-NAD+, histones; read-out: In vitro filtration assay pIC50 (converted)
Protocol: Compounds of the present invention were tested in an in vitro filtration assay assessing PARP-1 activity (triggered in the presence of nicked DNA) by means of its histone poly(ADP-ribosyl)ation activity using [^32P]-NAD as ADP-ribosyl donor. The radioactive ribosylated histones were precipitated by trichloroacetic acid (TCA) in 96-well filterplates and the incorporated [^32P] measured using a scintillation counter
A mixture of histones (stock solution: 5 mg/ml in H2O), NAD^+ (stock solution: 100 mM in H2O), and [^32P]-NAD^+ in incubation buffer (50 mM Tris/HCl, pH 8; 0.2 mM DTT; 4 mM MgCl2) was made. A mixture of the PARP-1 enzyme (5-10 μg/ml) and nicked DNA was also made. The nicked DNA was prepared as described in the in vitro SPA for PARP-1 inhibitory activity. Seventy-five μl of the PARP-1 enzyme/DNA mixture together with 1 μl of compound in DMSO and 25 μl of histones-NAD^+/[^32P]-NAD^+ mixture was added per well of a 96-well filterplate (0.45 μm, supplier Millipore). The final concentrations in the incubation mixture were 2 μg/ml for the histones, 0.1 mM for the NAD^+, […] (0.5 μC) for the [^32P]-NAD^+ and 2 μg/ml for the nicked DNA. Plates were incubated for 15 min. at room temperature and the reaction was terminated by the addition of 10 μl ice cold 100% TCA followed by the addition of 10 μl ice-cold BSA solution (1% in H2O). The protein fraction was allowed to precipitate for 10 min. at 4° C. and plates were vacuum filtered. The plates were subsequently washed with, for each well, 1 ml of 10% ice cold TCA, 1 ml of 5% ice cold TCA and 1 ml of 5% TCA at room temperature. Finally 100 μl of scintillation solution (Microscint 40, Packard) was added to each well and the plates were transferred to a TopCountNXT™ (supplier: Packard) for scintillation counting and values were expressed as counts per minute (cpm). For each experiment, controls (containing PARP-1 enzyme and DMSO without compound), a blank incubation (containing DMSO but no PARP-1 enzyme or compound) and samples (containing PARP-1 enzyme and compound dissolved in DMSO) were run in parallel. All compounds tested were dissolved and eventually further diluted in DMSO. In first instance, compounds were tested at a concentration of 10^−5M. […] In each test, the blank value was subtracted from both the control and the sample values. The control sample represented maximal PARP-1 enzyme activity. For each sample, the amount of cpm was expressed as a percentage of the mean cpm value of the controls. When appropriate, IC50-values (concentration of the drug, needed to reduce the PARP-1 enzyme activity to 50% of the control) were computed using linear interpolation between the experimental points just above and below the 50% level. Herein the effects of test compounds are expressed as pIC50 (the negative log value of the IC50−-value). As a reference compound, 4-amino-1,8-naphthalimide was included to validate the filtration assay.

colitis = details: rats, colitis induced by intraluminal trinitrobenzene sulfonic acid in 50% ethanol; cited from earlier work
[3] = test system: ischemia and reperfusion of the heart; details: rabbits, cited from earlier work

T1 sequence (P09874 whole entry): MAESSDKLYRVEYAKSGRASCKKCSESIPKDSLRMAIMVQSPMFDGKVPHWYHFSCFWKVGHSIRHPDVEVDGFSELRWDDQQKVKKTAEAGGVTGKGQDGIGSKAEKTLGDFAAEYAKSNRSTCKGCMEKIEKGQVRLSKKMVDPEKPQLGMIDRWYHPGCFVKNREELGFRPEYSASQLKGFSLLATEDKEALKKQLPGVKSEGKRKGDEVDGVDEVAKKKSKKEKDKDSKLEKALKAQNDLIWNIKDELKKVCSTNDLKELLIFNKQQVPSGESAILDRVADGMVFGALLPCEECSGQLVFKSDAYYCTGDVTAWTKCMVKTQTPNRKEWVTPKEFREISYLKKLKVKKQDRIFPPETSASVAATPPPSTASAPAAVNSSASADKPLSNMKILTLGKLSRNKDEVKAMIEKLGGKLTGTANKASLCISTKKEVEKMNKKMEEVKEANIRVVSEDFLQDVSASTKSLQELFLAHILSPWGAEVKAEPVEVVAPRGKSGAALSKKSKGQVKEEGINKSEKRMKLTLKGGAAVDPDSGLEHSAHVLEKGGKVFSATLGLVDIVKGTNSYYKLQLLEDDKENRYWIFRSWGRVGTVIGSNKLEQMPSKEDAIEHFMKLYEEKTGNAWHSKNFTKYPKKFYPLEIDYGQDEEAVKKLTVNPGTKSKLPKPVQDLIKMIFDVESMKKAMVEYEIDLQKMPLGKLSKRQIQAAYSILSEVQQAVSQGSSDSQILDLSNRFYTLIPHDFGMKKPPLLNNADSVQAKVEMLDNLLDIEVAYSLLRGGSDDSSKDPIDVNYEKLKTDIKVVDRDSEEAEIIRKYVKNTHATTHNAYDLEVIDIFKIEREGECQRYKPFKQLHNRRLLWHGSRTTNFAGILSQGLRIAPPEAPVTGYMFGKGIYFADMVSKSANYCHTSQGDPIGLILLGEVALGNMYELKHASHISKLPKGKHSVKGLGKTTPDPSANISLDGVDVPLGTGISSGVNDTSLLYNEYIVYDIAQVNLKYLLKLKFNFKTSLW

| Compound | IC50 (PARP-1 enzyme [1]) [nM] | IC50 (PARP-1 enzyme [2]) [nM] | other results |
| --- | --- | --- | --- |
| CCc1nc2ccc(C(NCCCN(C)Cc3ccccc3)c3ccccc3)cc2[nH]c1=O (stereo not shown) [Compound 9] | 312 | – | – |
| CCc1nc2ccc(C(c3ccccc3)N3CCC(NCCOC)CC3)cc2[nH]c1=O (stereo not shown) (as salt: salt) [Compound 2] | – | – | melting point: 98 °C |
| CCc1nc2ccc(C(c3ccccc3)n3cncn3)cc2[nH]c1=O (stereo not shown) [Compound 17] | 334 | – | – |
| CCc1nc2ccc(C(c3cccc(F)c3)n3ccnc3)cc2[nH]c1=O (stereo not shown) [Compound 12] | 728 | 3600 | – |
| CCc1nc2ccc(CC(c3ccccc3)n3ccnc3)cc2[nH]c1=O (stereo not shown) [Compound 1] | 206 | – | melting point: 166 °C |
| Cc1cc2ccc(C(CCN(C)C)c3ccccc3)cc2[nH]c1=O (stereo not shown) [Compound 3] | 899 | 9890 | – |
| CCc1nc2ccc(C(c3ccccc3)N3CCC(NCCOC)CC3)cc2[nH]c1=O (stereo not shown) [Compound 2] | 7.5 | – | – |
| CCc1nc2ccc(C(c3ccc(F)cc3)n3ccnc3)cc2[nH]c1=O (stereo not shown) [Compound 18] | 1000 | 4130 | – |
| NC(=O)c1cccc(N)c1 [3-amino-benzamide] | – | – | effect on inflammatory response, distal colon (colitis): reduced the inflammatory response; reduction in infarct size in the heart ([3]; single injection 10 mg/kg, one minute before occlusion or one minute before reperfusion): 32-42% |
| Cc1nc2ccc(C(c3ccc(C(C)C)cc3)n3ccnc3)cc2[nH]c1=O (stereo not shown) [Compound 8] | 411 | 1410 | – |
| CCc1nc2ccc(C(c3ccccc3)n3cccn3)cc2[nH]c1=O (stereo not shown) [Compound 14] | 1600 | 2670 | – |
| CCc1nc2ccc(C(c3ccccc3)n3ccnc3)cc2[nH]c1=O (stereo not shown) [Compound 19] | 231 | 615 | – |
| Cc1nc2ccc(C(c3ccc(Cl)cc3)n3ccnc3)cc2[nH]c1=O (stereo not shown) [Compound 20, 7-[(4-chlorophenyl)-1H-imidazol-1-ylmethyl]-3-methyl-2(1H)-quinoxalinone] | 4110 | > 10000 | – |
| CCc1nc2ccc(C(c3ccccc3F)n3ccnc3)cc2[nH]c1=O (stereo not shown) [Compound 13] | 718 | 4940 | – |
| CCc1nc2ccc(C(c3ccccc3)c3cccnc3)cc2[nH]c1=O (stereo not shown) [Compound 16] | 577 | 4530 | – |
| Oc1cccc2c(O)nccc12 [1,5-dihydroxyisoquinoline] | – | – | reduction in infarct size ([3]; single injection 1 mg/kg): 38-48% |

The next lines start with results.

| IC50 (PARP-1 enzyme [1]) [nM] | IC50 (PARP-1 enzyme [2]) [nM] | Compound | other results |
| --- | --- | --- | --- |
| 409 | – | CCc1nc2ccc(C(O)c3ccccc3)cc2[nH]c1=O (stereo not shown) [Compound 4] | melting point: 202 °C |
| 818 | – | CCOC(=O)C1CCN(C(c2ccc(Cl)cc2)c2ccc3nc(CC)c(=O)[nH]c3c2)CC1 (stereo not shown) [Compound 6] | – |
| 329 | 6380 | CCc1nc2ccc(CC(c3ccc(Cl)cc3)n3ccnc3)cc2[nH]c1=O (stereo not shown) [Compound 15] | – |
| 552 | – | CCc1nc2ccc(CC(O)c3ccc(Cl)cc3)cc2[nH]c1=O (stereo not shown) [Compound 10] | – |
| 586 | – | CCc1nc2ccc(CC(c3ccc(Cl)cc3)N3CCCC3)cc2[nH]c1=O (stereo not shown) [Compound 7] | – |
| 236 | 693 | CCc1nc2ccc(C(c3ccc(Cl)cc3)N3CCCCC3)cc2[nH]c1=O (stereo not shown) [Compound 5] | – |
| 914 | – | CCc1nc2ccc(CC(O)c3ccccc3)cc2[nH]c1=O (stereo not shown) [Compound 11] | – |

From patent US7928104B2, “7-phenylalkyl substituted 2-quinolinones and 2-quinoxalinones as poly(ADP-ribose) polymerase inhibitors” (priority 2003, dated 2011)
